This note sets out measurements from ChEMBL document CHEMBL4190343, “Novel deoxyvasicinone derivatives as potent multitarget-directed ligands for the treatment of Alzheimer's disease: Design, synthesis, and biological evaluation” (Eur J Med Chem, 2017).

Activity calls are given as the source filed them. The calls are words filed in the database; no cut-off is given here.

For data set [1], the target named is T1, Acetylcholinesterase (Homo sapiens, UniProt P22303).
The target in data set [2] is Cholinesterase (Homo sapiens, UniProt P06276).
The target of data set [3] is T1, Acetylcholinesterase. As to the kind of experiment: Inhibition of human AChE assessed as inhibitor dissociation constant for enzyme-inhibitor complex pre-incubated for 6 mins before ATCI substrate addition and measured after 12 mins by DTNB reagent dependent Ellman's method based Lineweaver-Burk plot analysis. Background: Ellman's reagent forms a yellow product with free thiols.

Data set [4] concerns the target T1, Acetylcholinesterase. As to the kind of experiment: Inhibition of human AChE assessed as inhibitor dissociation constant for enzyme-substrate-inhibitor complex pre-incubated for 6 mins before ATCI substrate addition and measured after 12 mins by DTNB reagent dependent Ellman's method based Lineweaver-Burk plot analysis.
Data set [5] is described as follows: Metal chelating activity against Cu2+ ions assessed as reduction in intrinsic fluorescence of compound at 50 uM incubated for 30 mins using CuSO4 by fluorescence spectrophotometry.
A short description of data set [6]: Metal chelating activity against Fe2+ ions assessed as reduction in intrinsic fluorescence of compound at 50 uM incubated for 30 mins using FeSO4 by fluorescence spectrophotometry.
Data set [7] can be described thus: Metal chelating activity against Fe3+ ions assessed as reduction in intrinsic fluorescence of compound at 50 uM incubated for 30 mins using FeCl3 by fluorescence spectrophotometry.
Data set [8] can be described thus: Metal chelating activity against Zn2+ ions assessed as reduction in intrinsic fluorescence of compound at 50 uM incubated for 30 mins using ZnCl2 by fluorescence spectrophotometry.
Data set [9] is described as follows: Metal chelating activity against Cu2+ ions assessed as compound-Cu2+ complex formation at 50 uM incubated for 30 mins using CuSO4 by UV-Visible spectrophotometry.
Data set [10] is described as follows: Metal chelating activity against Fe2+ ions assessed as compound-Fe2+ complex formation at 50 uM incubated for 30 mins using FeSO4 by UV-Visible spectrophotometry.
A short description of data set [11]: Metal chelating activity against Fe3+ ions assessed as compound-Fe3+ complex formation at 50 uM incubated for 30 mins using FeCl3 by UV-Visible spectrophotometry.
Data set [12] is described as follows: Metal chelating activity against Zn2+ ions assessed as compound-Zn2+ complex formation at 50 uM incubated for 30 mins using ZnCl2 by UV-Visible spectrophotometry.
Data set [13] is described as follows: Metal chelating activity against Cu2+ ions assessed as 1:1 stoichiometry compound-Cu2+ complex formation at 50 uM incubated for 30 mins using CuSO4 by UV-Visible spectrophotometry.
Compound in data set [14]: O=C(CNCc1cc(F)cc(F)c1)Nc1ccc2nc3n(c(=O)c2c1)CCC3
As to the kind of experiment: Inhibition of human AChE assessed as ATCI substrate Km at 1 nM pre-incubated for 6 mins before ATCI substrate addition and measured after 12 mins by DTNB reagent dependent Ellman's method based Michaelis-Menten kinetics analysis (reference value: […] mM).

Compound in data set [15]: O=C(CNCc1cc(F)cc(F)c1)Nc1ccc2nc3n(c(=O)c2c1)CCC3
The data set is described as follows: Inhibition of human AChE assessed as ATCI substrate Km at 5 nM pre-incubated for 6 mins before ATCI substrate addition and measured after 12 mins by DTNB reagent dependent Ellman's method based Michaelis-Menten kinetics analysis (reference value: […] mM).

Compound in data set [16]: O=C(CNCc1cc(F)cc(F)c1)Nc1ccc2nc3n(c(=O)c2c1)CCC3
The data set is described as follows: Inhibition of human AChE assessed as ATCI substrate Km at 10 nM pre-incubated for 6 mins before ATCI substrate addition and measured after 12 mins by DTNB reagent dependent Ellman's method based Michaelis-Menten kinetics analysis (reference value: […] mM).

Compound in data set [17]: O=C(CNCc1cc(F)cc(F)c1)Nc1ccc2nc3n(c(=O)c2c1)CCC3
As to the kind of experiment: Inhibition of human AChE assessed as ATCI substrate Vmax at 1 nM pre-incubated for 6 mins before ATCI substrate addition and measured after 12 mins by DTNB reagent dependent Ellman's method based Michaelis-Menten kinetics analysis (reference value: […] deltaA/min).

Compound in data set [18]: O=C(CNCc1cc(F)cc(F)c1)Nc1ccc2nc3n(c(=O)c2c1)CCC3
The data set is described as follows: Inhibition of human AChE assessed as ATCI substrate Vmax at 5 nM pre-incubated for 6 mins before ATCI substrate addition and measured after 12 mins by DTNB reagent dependent Ellman's method based Michaelis-Menten kinetics analysis (reference value: […] deltaA/min).

Compound in data set [19]: O=C(CNCc1cc(F)cc(F)c1)Nc1ccc2nc3n(c(=O)c2c1)CCC3
As to the kind of experiment: Inhibition of human AChE assessed as ATCI substrate Vmax at 10 nM pre-incubated for 6 mins before ATCI substrate addition and measured after 12 mins by DTNB reagent dependent Ellman's method based Michaelis-Menten kinetics analysis (reference value: […] deltaA/min).

Chain of Cholinesterase (P06276 whole entry): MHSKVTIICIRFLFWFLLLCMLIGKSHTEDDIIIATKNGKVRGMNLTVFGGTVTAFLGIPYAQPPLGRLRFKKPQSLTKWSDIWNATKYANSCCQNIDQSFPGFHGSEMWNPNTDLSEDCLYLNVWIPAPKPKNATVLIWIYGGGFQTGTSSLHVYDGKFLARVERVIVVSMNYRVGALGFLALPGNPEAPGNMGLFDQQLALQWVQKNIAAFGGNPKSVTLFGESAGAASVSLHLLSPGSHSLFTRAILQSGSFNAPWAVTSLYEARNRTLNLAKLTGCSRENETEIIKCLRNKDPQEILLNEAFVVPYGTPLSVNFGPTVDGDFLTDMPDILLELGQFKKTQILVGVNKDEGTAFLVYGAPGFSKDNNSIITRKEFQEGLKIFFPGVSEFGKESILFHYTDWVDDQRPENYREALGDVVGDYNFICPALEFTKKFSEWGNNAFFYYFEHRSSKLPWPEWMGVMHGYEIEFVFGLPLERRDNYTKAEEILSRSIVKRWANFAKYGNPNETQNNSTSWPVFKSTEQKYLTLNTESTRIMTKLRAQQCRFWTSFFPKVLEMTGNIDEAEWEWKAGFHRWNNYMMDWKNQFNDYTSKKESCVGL

By IC50 is commonly meant the point on the concentration scale where inhibition reaches its midpoint. A higher IC50 goes with lower potency. As for `CCCCCCCCCCNCC(=O)Nc1ccc2nc3n(c(=O)c2c1)CCC3`, the IC50 in [1] was 24.1 nM; in data set [2], 37.2 nM.
The like results for `CCCNCC(=O)Nc1ccc2nc3n(c(=O)c2c1)CCC3` were, in that order, 310 nM and 1190 nM.
The like results for `CCCCCCCCCCCCNCC(=O)Nc1ccc2nc3n(c(=O)c2c1)CCC3` were, in that order, 36.7 nM and 26.8 nM.
On the same counts, the results for `CCCCCCCCCCCCCCCCNCC(=O)Nc1ccc2nc3n(c(=O)c2c1)CCC3` are 5.31 nM and 4.35 nM.
Regarding `CCCCNCC(=O)Nc1ccc2nc3n(c(=O)c2c1)CCC3`, the results for the IC50 in data set [1] and in [2] were 21.2 nM and 107 nM, respectively.
On the same counts, the results for `C#CCNCC(=O)Nc1ccc2nc3n(c(=O)c2c1)CCC3` are 46.4 nM and 12.4 nM.
On the same counts, the results for `O=C(CNCc1ccccc1F)Nc1ccc2nc3n(c(=O)c2c1)CCC3` are 528 nM and 108 nM.
On the same counts, the results for `O=C(CNCCCc1ccccc1)Nc1ccc2nc3n(c(=O)c2c1)CCC3` are 4.09 nM and 20.7 nM.
For `O=C(CNCc1ccccc1)Nc1ccc2nc3n(c(=O)c2c1)CCC3`, the IC50 in data set [1] turned out to be 231 nM; in [2], 145 nM.
Regarding `CCCCCCNCC(=O)Nc1ccc2nc3n(c(=O)c2c1)CCC3`, the IC50 in data set [1] turned out to be 25.3 nM; in data set [2], 10.5 nM.
On the same counts, the results for `O=C(CNCc1ccccc1[N+](=O)[O-])Nc1ccc2nc3n(c(=O)c2c1)CCC3` are 30.7 nM and 103 nM.
The like results for `CCNCC(=O)Nc1ccc2nc3n(c(=O)c2c1)CCC3` were, in that order, 557 nM and 1000 nM.
As to `N#Cc1ccccc1CNCC(=O)Nc1ccc2nc3n(c(=O)c2c1)CCC3`, the IC50 turned out to be 16.8 nM in data set [1] and 29.9 nM in data set [2].
The like results for `O=c1c2ccccc2nc2n1CCC2` [DEOXYVASICINONE] were, in that order, 62500 nM and 45100 nM.
One may read the Ki as the dissociation constant of the complex between target and ligand, obtained from inhibition or displacement. As to `O=C(CNCc1cc(F)cc(F)c1)Nc1ccc2nc3n(c(=O)c2c1)CCC3`, the Ki in [3] was found to be 9.85 nM; in [4], 15.8 nM. In addition, the result in data set [5], in data set [6], in data set [7], in [9], in data set [10] and in data set [11] was Active. The outcome in [13] was Active. Moreover, the result in data set [8] and in data set [12] was inactive. Besides, the values for the IC50 in data set [1] and in [2] were 7.61 nM and 2.35 nM, respectively.
In the case of `CC(C)=CCNCC(=O)Nc1ccc2nc3n(c(=O)c2c1)CCC3`, the IC50 in data set [1] is 25.9 nM; in [2], 16.3 nM.
The like results for `CCCCCCCCNCC(=O)Nc1ccc2nc3n(c(=O)c2c1)CCC3` were, in that order, 10.6 nM and 45.7 nM.
Turning to `Cc1ccccc1CNCC(=O)Nc1ccc2nc3n(c(=O)c2c1)CCC3`, the IC50 came to 119 nM in data set [1] and 107 nM in [2].
The like results for `C=CCNCC(=O)Nc1ccc2nc3n(c(=O)c2c1)CCC3` were, in that order, 66.6 nM and 16.6 nM.
The like results for `C=CCCNCC(=O)Nc1ccc2nc3n(c(=O)c2c1)CCC3` were, in that order, 13.3 nM and 81.5 nM.

B1: Acetylcholinesterase (Homo sapiens), P22303 (protein)
chain: MRPPQCLLHTPSLASPLLLLLLWLLGGGVGAEGREDAELLVTVRGGRLRGIRLKTPGGPVSAFLGIPFAEPPMGPRRFLPPEPKQPWSGVVDATTFQSVCYQYVDTLYPGFEGTEMWNPNRELSEDCLYLNVWTPYPRPTSPTPVLVWIYGGGFYSGASSLDVYDGRFLVQAERTVLVSMNYRVGAFGFLALPGSREAPGNVGLLDQRLALQWVQENVAAFGGDPTSVTLFGESAGAASVGMHLLSPPSRGLFHRAVLQSGAPNGPWATVGMGEARRRATQLAHLVGCPPGGTGGNDTELVACLRTRPAQVLVNHEWHVLPQESVFRFSFVPVVDGDFLSDTPEALINAGDFHGLQVLVGVVKDEGSYFLVYGAPGFSKDNESLISRAEFLAGVRVGVPQVSDLAAEAVVLHYTDWLHPEDPARLREALSDVVGDHNVVCPVAQLAGRLAAQGARVYAYVFEHRASTLSWPLWMGVPHGYEIEFIFGIPLDPSRNYTAEEKIFAQRLMRYWANFARTGDPNEPRDPKAPQWPPYTAGAQQYVSLDLRPLEVRRGLRAQACAFWNRFLPKLLSATDTLDEAERQWKAEFHRWSSYMVHWKNQFDHYSKQDRCSDL
By Km is commonly meant the concentration of substrate that gives half-maximal velocity. Regarding B1, the Michaelis constant (Km) in data set [14] was 329 µM; in data set [15] it was 369 µM; in data set [16], 434 µM. Besides, the Vmax in data set [17] came out at 0.212 deltaA/min; in [18], 0.19 deltaA/min; in data set [19], 0.152 deltaA/min.
